Measurements reported in ChEMBL document CHEMBL1136358, “Discovery and initial SAR of 2-amino-5-carboxamidothiazoles as inhibitors of the Src-family kinase p56(Lck)” (Bioorg Med Chem Lett, 2003).

How the values were obtained:
[1] = molecular target: T1, Tyrosine-protein kinase Lck (Homo sapiens, UniProt P06239)
Description: Inhibitory activity human Lck(hLck) kinase

[2] = molecular target: T2, Proto-oncogene tyrosine-protein kinase LCK (Mus musculus, UniProt P06240); assay: In vitro inhibition of murine Lck kinase.
[3] = molecular target: T2, Proto-oncogene tyrosine-protein kinase LCK; assay: Inhibition of mouse Lck(mLck) kinase at 50 uM (Inactive)
[4] = molecular target: T1, Tyrosine-protein kinase Lck; assay: Inhibition of human Lck(hLck) kinase at 50 uM (Inactive)
[5] = molecular target: T1, Tyrosine-protein kinase Lck; assay: Inhibition of human p56 Lck tyrosine kinase
[6] = molecular target: T2, Proto-oncogene tyrosine-protein kinase LCK; assay: Inhibition of mouse p56 Lck tyrosine kinase
[7] = molecular target: T1, Tyrosine-protein kinase Lck; assay: Inhibition of human Lck(hLck) kinase
[8] = molecular target: Receptor tyrosine-protein kinase erbB-2 (Homo sapiens, UniProt P04626); assay: Inhibition of HER2 kinase
[9] = molecular target: Tyrosine-protein kinase Fyn (Homo sapiens, UniProt P06241); assay: Inhibition of Fyn kinase
Focal adhesion kinase 1 = Focal adhesion kinase 1 (Homo sapiens, UniProt Q05397); assay: Inhibition of FAK kinase
[10] = molecular target: Tyrosine-protein kinase HCK (Homo sapiens, UniProt P08631); assay: Inhibition of Hck kinase
[11] = molecular target: Fibroblast growth factor receptor (Homo sapiens, UniProt P22607+P11362+P22455+P21802); assay: Inhibition of FGF receptor; format: protein assay
[12] = molecular target: Proto-oncogene tyrosine-protein kinase Src (Homo sapiens, UniProt P12931); assay: Inhibition of Src kinase
[13] = molecular target: T1, Tyrosine-protein kinase Lck; assay: Inhibition of Lck kinase
[14] = molecular target: Cyclin-dependent kinase 2 (Homo sapiens, UniProt P24941); assay: Inhibition of CDK2 kinase
[15] = molecular target: T3, Tyrosine-protein kinase JAK3 (Homo sapiens, UniProt P52333); assay: Inhibition of Jak3 kinase
T3 sequence (P52333 whole entry): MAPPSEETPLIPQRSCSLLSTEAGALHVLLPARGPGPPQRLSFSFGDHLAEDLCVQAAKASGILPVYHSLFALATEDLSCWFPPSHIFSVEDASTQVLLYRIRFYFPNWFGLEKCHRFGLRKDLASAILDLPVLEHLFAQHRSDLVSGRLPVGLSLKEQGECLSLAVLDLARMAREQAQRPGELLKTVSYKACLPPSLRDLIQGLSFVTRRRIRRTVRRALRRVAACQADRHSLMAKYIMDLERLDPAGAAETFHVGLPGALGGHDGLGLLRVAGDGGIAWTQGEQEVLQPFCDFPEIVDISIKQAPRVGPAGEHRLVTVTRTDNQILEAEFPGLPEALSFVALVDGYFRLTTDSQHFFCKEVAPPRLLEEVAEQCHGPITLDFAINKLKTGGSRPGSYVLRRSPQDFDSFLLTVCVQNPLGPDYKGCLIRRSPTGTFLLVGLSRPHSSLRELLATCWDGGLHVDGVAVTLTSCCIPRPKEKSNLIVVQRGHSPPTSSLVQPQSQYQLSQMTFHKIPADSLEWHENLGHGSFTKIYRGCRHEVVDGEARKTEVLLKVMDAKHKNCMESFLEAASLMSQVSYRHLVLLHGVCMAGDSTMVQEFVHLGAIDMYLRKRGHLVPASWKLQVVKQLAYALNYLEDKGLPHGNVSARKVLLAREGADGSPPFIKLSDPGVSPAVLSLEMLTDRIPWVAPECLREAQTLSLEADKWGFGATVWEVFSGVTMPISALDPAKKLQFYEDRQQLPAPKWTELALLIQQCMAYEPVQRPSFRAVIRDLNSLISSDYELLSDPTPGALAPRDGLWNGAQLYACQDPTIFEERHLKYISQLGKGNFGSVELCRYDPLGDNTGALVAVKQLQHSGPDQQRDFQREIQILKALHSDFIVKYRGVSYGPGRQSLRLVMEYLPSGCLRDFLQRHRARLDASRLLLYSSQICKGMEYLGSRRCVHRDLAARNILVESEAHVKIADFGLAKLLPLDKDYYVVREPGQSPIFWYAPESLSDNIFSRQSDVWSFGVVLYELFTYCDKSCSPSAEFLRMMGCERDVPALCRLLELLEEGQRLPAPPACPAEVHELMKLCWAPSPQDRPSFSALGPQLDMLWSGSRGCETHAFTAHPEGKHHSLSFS

T1 sequence (P06239 whole entry): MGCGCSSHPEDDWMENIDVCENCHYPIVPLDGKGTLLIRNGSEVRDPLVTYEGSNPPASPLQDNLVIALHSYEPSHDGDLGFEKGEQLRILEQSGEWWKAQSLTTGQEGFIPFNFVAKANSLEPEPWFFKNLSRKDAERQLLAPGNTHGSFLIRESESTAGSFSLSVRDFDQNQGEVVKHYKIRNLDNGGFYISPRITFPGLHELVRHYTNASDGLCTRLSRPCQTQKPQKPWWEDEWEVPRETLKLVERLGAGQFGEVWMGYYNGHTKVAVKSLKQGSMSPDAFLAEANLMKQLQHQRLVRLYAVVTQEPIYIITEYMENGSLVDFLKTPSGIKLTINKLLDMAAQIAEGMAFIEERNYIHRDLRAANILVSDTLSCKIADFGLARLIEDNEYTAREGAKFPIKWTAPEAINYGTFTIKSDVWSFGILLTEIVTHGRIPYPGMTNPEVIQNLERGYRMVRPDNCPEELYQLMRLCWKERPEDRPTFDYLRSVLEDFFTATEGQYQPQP
T2 sequence (P06240 whole entry): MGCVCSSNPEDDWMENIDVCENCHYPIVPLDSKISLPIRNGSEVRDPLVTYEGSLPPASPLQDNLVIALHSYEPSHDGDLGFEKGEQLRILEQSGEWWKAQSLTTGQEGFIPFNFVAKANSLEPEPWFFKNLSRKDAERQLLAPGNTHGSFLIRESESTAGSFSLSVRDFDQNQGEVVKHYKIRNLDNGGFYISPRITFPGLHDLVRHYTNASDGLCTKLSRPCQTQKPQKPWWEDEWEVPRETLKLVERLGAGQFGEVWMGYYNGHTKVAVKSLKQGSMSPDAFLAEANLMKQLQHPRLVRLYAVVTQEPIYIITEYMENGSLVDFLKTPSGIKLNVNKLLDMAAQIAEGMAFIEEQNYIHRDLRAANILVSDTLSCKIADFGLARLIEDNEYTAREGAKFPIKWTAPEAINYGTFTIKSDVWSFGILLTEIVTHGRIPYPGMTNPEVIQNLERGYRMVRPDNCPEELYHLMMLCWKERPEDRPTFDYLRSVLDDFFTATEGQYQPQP
Sequence of Tyrosine-protein kinase Fyn (P06241 whole entry): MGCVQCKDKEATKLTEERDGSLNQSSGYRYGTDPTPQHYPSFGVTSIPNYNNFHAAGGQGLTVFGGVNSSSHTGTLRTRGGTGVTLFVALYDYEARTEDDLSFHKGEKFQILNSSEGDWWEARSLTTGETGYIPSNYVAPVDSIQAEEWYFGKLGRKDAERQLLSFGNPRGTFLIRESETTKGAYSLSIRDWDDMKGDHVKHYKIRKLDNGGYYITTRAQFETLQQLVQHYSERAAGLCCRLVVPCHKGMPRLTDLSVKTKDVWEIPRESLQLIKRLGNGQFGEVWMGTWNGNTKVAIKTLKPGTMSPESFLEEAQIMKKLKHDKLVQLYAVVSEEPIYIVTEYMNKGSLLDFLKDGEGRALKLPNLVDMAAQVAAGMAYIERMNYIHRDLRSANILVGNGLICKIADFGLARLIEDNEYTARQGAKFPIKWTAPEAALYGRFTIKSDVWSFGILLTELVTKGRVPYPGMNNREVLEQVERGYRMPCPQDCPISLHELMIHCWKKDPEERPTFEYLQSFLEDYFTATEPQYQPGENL
Sequence of Proto-oncogene tyrosine-protein kinase Src (P12931 2-536 limits assumed): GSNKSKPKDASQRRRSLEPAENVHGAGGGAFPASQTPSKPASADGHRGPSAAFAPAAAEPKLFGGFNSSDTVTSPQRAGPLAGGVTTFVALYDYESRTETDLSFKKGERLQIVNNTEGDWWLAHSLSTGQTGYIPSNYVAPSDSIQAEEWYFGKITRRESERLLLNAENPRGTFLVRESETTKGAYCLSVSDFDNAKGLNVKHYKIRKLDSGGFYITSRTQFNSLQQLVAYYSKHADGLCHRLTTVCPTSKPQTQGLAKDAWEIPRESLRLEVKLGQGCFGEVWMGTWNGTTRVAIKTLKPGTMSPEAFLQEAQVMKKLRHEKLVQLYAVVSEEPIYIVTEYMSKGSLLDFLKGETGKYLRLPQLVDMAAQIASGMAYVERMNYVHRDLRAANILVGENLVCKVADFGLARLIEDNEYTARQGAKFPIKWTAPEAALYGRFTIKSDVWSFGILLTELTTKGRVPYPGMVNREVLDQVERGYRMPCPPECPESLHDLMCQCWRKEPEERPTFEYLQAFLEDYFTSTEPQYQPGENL
Sequence of Tyrosine-protein kinase HCK (P08631 whole entry): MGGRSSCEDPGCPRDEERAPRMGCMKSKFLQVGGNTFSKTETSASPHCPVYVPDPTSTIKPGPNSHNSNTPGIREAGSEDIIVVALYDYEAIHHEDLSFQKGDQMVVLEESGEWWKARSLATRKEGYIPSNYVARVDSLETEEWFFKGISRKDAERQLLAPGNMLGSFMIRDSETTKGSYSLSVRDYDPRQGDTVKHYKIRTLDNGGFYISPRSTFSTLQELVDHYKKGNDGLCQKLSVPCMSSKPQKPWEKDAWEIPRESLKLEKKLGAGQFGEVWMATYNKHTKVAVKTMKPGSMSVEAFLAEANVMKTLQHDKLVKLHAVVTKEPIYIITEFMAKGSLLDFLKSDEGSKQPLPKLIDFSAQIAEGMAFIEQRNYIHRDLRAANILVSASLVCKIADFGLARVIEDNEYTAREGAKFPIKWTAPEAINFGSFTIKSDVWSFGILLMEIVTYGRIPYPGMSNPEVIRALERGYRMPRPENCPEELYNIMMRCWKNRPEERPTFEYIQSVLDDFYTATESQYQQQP
Sequence of Receptor tyrosine-protein kinase erbB-2 (P04626 whole entry): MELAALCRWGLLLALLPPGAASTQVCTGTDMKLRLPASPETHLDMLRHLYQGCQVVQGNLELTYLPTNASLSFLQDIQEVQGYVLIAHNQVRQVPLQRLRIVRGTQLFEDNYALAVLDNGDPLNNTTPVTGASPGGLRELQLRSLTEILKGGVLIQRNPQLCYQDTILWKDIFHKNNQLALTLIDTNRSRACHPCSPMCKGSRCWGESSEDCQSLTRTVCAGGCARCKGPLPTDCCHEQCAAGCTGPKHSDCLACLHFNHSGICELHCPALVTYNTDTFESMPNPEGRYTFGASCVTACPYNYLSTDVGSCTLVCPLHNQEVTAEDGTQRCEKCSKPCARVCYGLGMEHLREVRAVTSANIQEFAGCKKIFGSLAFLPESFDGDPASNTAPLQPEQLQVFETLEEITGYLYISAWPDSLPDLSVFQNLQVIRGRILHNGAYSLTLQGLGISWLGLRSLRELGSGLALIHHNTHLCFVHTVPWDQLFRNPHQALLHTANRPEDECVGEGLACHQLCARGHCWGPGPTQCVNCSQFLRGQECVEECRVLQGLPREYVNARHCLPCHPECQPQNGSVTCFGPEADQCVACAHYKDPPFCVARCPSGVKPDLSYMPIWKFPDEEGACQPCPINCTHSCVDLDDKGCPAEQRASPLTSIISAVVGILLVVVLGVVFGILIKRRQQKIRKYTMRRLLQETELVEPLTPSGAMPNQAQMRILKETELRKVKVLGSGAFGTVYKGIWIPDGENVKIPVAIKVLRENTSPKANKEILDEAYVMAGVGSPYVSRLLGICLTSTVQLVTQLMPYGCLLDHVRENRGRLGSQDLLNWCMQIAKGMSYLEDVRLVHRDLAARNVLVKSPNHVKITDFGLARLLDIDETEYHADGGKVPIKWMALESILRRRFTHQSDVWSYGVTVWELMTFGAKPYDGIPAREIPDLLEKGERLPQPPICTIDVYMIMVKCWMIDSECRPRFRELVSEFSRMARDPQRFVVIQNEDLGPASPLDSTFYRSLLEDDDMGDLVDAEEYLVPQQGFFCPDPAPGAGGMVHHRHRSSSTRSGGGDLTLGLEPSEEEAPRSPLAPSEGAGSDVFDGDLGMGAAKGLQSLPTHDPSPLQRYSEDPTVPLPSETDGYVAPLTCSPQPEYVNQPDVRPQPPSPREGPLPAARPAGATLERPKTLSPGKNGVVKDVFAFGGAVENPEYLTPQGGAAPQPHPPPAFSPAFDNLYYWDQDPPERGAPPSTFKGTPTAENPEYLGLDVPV
Sequence of Focal adhesion kinase 1 (Q05397 whole entry): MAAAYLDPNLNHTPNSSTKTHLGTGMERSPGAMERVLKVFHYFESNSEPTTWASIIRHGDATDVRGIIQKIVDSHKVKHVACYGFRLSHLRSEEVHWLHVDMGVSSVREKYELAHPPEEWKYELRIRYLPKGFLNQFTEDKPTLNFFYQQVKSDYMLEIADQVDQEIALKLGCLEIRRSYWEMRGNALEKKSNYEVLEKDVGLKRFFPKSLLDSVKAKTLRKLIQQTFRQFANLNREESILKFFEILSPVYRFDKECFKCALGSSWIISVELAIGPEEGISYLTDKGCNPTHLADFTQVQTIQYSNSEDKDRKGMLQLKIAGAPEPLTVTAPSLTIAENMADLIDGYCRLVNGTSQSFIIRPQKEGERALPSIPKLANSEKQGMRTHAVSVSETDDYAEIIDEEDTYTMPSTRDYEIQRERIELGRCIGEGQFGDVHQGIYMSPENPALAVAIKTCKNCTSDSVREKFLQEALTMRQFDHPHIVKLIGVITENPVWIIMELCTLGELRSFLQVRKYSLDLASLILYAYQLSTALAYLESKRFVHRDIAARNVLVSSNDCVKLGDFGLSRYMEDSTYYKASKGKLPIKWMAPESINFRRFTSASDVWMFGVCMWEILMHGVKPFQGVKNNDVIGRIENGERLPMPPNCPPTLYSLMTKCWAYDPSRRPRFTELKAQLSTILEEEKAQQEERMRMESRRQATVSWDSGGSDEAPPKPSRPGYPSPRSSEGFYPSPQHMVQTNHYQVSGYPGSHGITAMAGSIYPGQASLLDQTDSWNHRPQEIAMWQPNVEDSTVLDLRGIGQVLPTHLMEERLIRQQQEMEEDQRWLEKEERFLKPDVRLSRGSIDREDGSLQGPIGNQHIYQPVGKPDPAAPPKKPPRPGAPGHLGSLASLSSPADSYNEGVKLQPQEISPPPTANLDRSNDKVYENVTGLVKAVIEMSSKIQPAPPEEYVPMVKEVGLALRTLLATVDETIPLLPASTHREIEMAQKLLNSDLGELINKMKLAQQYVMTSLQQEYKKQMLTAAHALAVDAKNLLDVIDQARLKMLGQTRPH

| IC50 [1] [nM] | IC50 [2] [nM] | Compound | other results |
| --- | --- | --- | --- |
| – | 40300 | Cc1cccc(C(C)C)c1NC(=O)c1sc(NC(=O)OC(C)(C)C)nc1C | – |
| > 50000 | > 50000 | Cc1nc(NC(=O)OC(C)(C)C)sc1C(=O)NC(C)C(C)C (centres undefined) | – |
| 30 | 70 | CCCCNC(=O)Nc1nc(C)c(C(=O)Nc2c(C)cc(C)cc2C)s1 | – |
| 240 | 170 | CNC(=O)Nc1nc(C)c(C(=O)Nc2c(C)cc(C)cc2C)s1 | – |
| 4500 | – | Cc1cccc(Cl)c1NC(=O)c1sc(NC(=O)c2ccccc2)nc1C | – |
| – | 45700 | Cc1ccccc1NC(=O)c1sc(NC(=O)OC(C)(C)C)nc1C | – |
| – | – | Cc1cc(C)c(N(C)C(=O)c2sc(NC(=O)OC(C)(C)C)nc2C)c(C)c1 | IC50 [3]: Not Active; IC50 [4]: Not Active |
| – | > 50000 | Cc1nc(NC(=O)OC(C)(C)C)sc1C(=O)N1CCN(C=O)CC1 | – |
| – | > 50000 | Cc1cc(NC(=O)c2sc(NC(=O)OC(C)(C)C)nc2C)c(C)[nH]1 | – |
| 620 | – | CCCCNC(=O)Nc1nc(C)c(C(=O)Nc2c(C)cccc2Cl)s1 | – |
| > 30000 | – | Cc1cc(C)c(NC(=O)c2sc(NC(=O)OC(C)(C)C)nc2-c2ccccc2)c(C)c1 | – |
| – | > 50000 | Cc1nc(NC(=O)OC(C)(C)C)sc1C(=O)NCC(C)(C)C | – |
| – | > 50000 | Cc1nc(NC(=O)OC(C)(C)C)sc1C(=O)Nc1ccc(Cl)cc1Cl | – |
| – | 24300 | COc1cccc(C)c1NC(=O)c1sc(NC(=O)OC(C)(C)C)nc1C | – |
| – | – | Cc1cc(Br)cc(C)c1NC(=O)c1sc(NC(=O)OC(C)(C)C)nc1C | IC50 [5]: 1400 nM; IC50 [6]: 2400 nM |
| – | – | Cc1nc(NC(=O)OC(C)(C)C)sc1C(=O)Nc1c(Cl)cccc1Cl | IC50 [7]: 12500 nM |
| – | > 50000 | Cc1nc(NC(=O)OC(C)(C)C)sc1C(=O)NCC1CCCCC1 | – |
| – | – | Cc1cccc(Cl)c1NC(=O)c1sc(NC(=O)OC(C)(C)C)nc1C | IC50 [5]: 28000 nM; IC50 [6]: 9600 nM |

| IC50 [1] [nM] | IC50 [2] [nM] | Compound | other results |
| --- | --- | --- | --- |
| > 30000 | – | Cc1cc(C)c(NC(=O)c2sc(NC(=O)OC(C)(C)C)nc2C(F)(F)F)c(C)c1 | – |
| 700 | 720 | COC(=O)Nc1nc(C)c(C(=O)Nc2c(C)cc(C)cc2C)s1 | – |
| – | > 50000 | COc1cc(NC(=O)c2sc(NC(=O)OC(C)(C)C)nc2C)cc(C(F)(F)F)c1 | – |
| – | – | Cc1cc(C)c(NC(=O)c2sc(NC(=O)OC(C)(C)C)nc2C)c(C)c1 | IC50 [5]: 1500 nM; IC50 [6]: 3000 nM |
| 35 | – | Cc1cccc(Cl)c1NC(=O)c1cnc(NC(=O)C2CC2)s1 | IC50 [8]: > 25000 nM; IC50 [9]: 71 nM; IC50 (Focal adhesion kinase 1): > 25000 nM; IC50 [10]: 310 nM; IC50 [11]: > 25000 nM; IC50 [12]: 10 nM; IC50 [13]: 35 nM; IC50 [14]: > 25000 nM; IC50 [15]: 44 nM |
| – | – | Cc1cc(C)c(NC(=O)c2sc(N)nc2C)c(C)c1 | IC50 [5]: 5000 nM; IC50 [6]: 6600 nM |
| – | > 50000 | Cc1nc(NC(=O)OC(C)(C)C)sc1C(=O)Nc1ccccc1 | – |
| 1400 | – | Cc1cccc(Cl)c1NC(=O)c1sc(NC(=O)C2CC2)nc1C | – |
| – | – | Cc1cccc(C)c1NC(=O)c1sc(NC(=O)OC(C)(C)C)nc1C | IC50 [5]: 4400 nM; IC50 [6]: 7500 nM |
| – | > 50000 | Cc1nc(NC(=O)OC(C)(C)C)sc1C(=O)Nc1c(C(C)C)cccc1C(C)C | – |
| – | > 50000 | Cc1cccc(C(C)(C)C)c1NC(=O)c1sc(NC(=O)OC(C)(C)C)nc1C | – |
| 710 | – | Cc1cccc(Cl)c1NC(=O)c1sc(NC(=O)c2ccco2)nc1C | – |
| – | > 50000 | Cc1nc(NC(=O)OC(C)(C)C)sc1C(=O)Nc1ccccc1[N+](=O)[O-] | – |
| > 30000 | – | Cc1cc(C)c(NC(=O)c2cnc(NC(=O)OC(C)(C)C)s2)c(C)c1 | – |
| > 30000 | – | CCc1nc(NC(=O)OC(C)(C)C)sc1C(=O)Nc1c(C)cc(C)cc1C | – |
| – | – | Cc1cc(C)c(NC(=O)c2sc(N(C)C(=O)OC(C)(C)C)nc2C)c(C)c1 | IC50 [3]: Not Active; IC50 [4]: Not Active |
| 890 | – | Cc1cccc(Cl)c1NC(=O)c1cnc(NC(=O)c2ccccc2)s1 | – |

| Compound | IC50 [1] [nM] | IC50 [2] [nM] | other results |
| --- | --- | --- | --- |
| Cc1cc(C)c(NC(=O)c2cnc(NC(=O)C3CC3)s2)c(C)c1 | 18 | – | – |
| Cc1cc(C)c(NC(=O)c2sc(NC(=O)c3ccccc3)nc2C)c(C)c1 | 800 | 320 | – |
| Cc1cc(C)c(NC(=O)c2sc(NC(=O)c3ccco3)nc2C)c(C)c1 | 360 | – | – |
